The record followed here is PMC3579217 (Journal of molecular biology, 2012).

The assay deals with myrMA (myristoylated M-PMV matrix protein) (Mason-Pfizer monkey virus, UniProt P07567). The experiment in a line: 1H/[…] HSQC NMR titration. It counts as binding.
myrMA (myristoylated M-PMV matrix protein), sequence (P07567 2-118): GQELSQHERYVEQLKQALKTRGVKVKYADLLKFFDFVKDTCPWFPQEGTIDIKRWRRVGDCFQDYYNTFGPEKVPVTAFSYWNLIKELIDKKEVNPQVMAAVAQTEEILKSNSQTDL

Usually Kd stands for the constant that tells how readily two partners part at equilibrium. Regarding `CCCCCCCC(=O)OC[C@H](COP(=O)(O)O[C@@H]1[C@H](O)[C@H](O)[C@@H](OP(=O)(O)O)[C@H](OP(=O)(O)O)[C@H]1O)OC(=O)CCCCCCC` [C8-PI(4,5)P2], the Kd was 92.8 ± 7.5 µM.
